Data from ChEMBL document CHEMBL5465560, “Selectivity Literature for EUbOPEN Chemogenomic Library” (2024).
One block for each compound: values may come before it.

Experiments:
[1] = target: T1, Mitogen-activated protein kinase 13 (Homo sapiens) (UniProt O15264); assay: Selectivity interaction (Kinase panel (Z-LYTE Assay)) EUB0001632a MAPK13; conditions: at 10 µM
T1 sequence (whole entry): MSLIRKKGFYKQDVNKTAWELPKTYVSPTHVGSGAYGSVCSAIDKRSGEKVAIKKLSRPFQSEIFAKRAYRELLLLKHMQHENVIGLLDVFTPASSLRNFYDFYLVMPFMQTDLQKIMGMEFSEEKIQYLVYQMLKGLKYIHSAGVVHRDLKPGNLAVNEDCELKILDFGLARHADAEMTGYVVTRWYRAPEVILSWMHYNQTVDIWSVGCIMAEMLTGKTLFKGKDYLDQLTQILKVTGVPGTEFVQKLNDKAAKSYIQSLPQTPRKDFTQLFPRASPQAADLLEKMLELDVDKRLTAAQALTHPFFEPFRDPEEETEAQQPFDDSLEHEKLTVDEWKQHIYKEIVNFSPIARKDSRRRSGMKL

[2] = target: T2, Serine/threonine-protein kinase Sgk1 (Homo sapiens) (UniProt O00141); assay: Selectivity interaction (KinomeScan (DiscoverX)) EUB0000666a SGK1; conditions: at 10 µM
T2 sequence (whole entry): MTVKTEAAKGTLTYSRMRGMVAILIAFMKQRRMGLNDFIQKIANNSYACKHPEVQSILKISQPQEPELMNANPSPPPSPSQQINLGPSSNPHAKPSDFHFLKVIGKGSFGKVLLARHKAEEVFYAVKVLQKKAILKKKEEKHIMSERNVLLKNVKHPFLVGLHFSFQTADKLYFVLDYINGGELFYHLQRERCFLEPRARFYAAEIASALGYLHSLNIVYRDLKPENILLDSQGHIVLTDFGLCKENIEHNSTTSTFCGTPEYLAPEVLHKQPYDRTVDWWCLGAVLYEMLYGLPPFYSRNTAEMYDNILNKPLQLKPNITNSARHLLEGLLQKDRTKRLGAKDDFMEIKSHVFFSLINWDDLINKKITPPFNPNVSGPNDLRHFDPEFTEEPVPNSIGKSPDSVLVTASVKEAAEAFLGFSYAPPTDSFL

[3] = target: Serine/threonine-protein kinase MRCK alpha (Homo sapiens) (UniProt Q5VT25); assay: Selectivity interaction (KinomeScan (DiscoverX)) EUB0000607a CDC42BPA; conditions: at 10 µM
[4] = target: T3, Aurora kinase A (Homo sapiens) (UniProt O14965); conditions: at 10 µM
T3 sequence (whole entry): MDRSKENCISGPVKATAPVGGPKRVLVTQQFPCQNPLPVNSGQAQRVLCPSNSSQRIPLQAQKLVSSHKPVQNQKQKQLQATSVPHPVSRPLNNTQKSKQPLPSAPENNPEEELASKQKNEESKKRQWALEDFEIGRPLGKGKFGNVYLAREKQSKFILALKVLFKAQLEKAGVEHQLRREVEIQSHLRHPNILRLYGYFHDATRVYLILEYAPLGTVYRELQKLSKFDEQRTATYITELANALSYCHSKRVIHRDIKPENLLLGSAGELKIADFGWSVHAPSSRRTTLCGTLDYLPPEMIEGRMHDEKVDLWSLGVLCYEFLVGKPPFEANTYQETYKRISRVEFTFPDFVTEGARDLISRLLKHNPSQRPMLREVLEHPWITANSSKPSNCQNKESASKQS

[5] = target: Mitogen-activated protein kinase kinase kinase kinase 4 (Homo sapiens, UniProt O95819); conditions: at 10 µM
[6] = target: Protein kinase C theta type (Homo sapiens, UniProt Q04759); assay: Selectivity interaction (KinomeScan (DiscoverX)) EUB0001049a PRKCQ; conditions: at 1 µM
[7] = target: Calcium/calmodulin-dependent protein kinase kinase 2 (Homo sapiens) (UniProt Q96RR4); assay: Selectivity interaction (KinomeScan (DiscoverX)) EUB0001079a CAMKK2; conditions: at 1 µM
[8] = target: T4, Gamma-aminobutyric acid receptor subunit alpha-1 (Homo sapiens) (UniProt P14867); assay: Selectivity interaction (GPCR panel (PDSP screen)) EUB0001079a GABRA1; conditions: at 10 µM
T4 sequence (whole entry): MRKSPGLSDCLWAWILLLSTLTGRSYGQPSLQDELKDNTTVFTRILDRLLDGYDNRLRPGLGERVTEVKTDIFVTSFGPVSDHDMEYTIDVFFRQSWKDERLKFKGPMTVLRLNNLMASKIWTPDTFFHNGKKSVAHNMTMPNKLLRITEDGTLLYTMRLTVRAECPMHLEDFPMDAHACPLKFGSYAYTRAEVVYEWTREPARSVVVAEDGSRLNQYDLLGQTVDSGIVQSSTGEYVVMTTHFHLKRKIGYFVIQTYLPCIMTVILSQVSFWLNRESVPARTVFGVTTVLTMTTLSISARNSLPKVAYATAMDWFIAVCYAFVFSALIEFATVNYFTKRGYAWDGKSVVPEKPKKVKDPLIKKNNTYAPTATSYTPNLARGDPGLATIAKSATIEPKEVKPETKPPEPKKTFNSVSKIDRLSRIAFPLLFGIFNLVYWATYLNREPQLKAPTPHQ

[9] = target: Vascular endothelial growth factor receptor 2 (Homo sapiens, UniProt P35968); assay: Selectivity interaction (KinomeScan (DiscoverX)) EUB0001079a KDR; conditions: at 1 µM
[10] = target: T5, Tyrosine-protein kinase Tec (Homo sapiens) (UniProt P42680); assay: Selectivity interaction (KinomeScan (DiscoverX)) EUB0000229b TEC; conditions: at 10 µM
T5 sequence (whole entry): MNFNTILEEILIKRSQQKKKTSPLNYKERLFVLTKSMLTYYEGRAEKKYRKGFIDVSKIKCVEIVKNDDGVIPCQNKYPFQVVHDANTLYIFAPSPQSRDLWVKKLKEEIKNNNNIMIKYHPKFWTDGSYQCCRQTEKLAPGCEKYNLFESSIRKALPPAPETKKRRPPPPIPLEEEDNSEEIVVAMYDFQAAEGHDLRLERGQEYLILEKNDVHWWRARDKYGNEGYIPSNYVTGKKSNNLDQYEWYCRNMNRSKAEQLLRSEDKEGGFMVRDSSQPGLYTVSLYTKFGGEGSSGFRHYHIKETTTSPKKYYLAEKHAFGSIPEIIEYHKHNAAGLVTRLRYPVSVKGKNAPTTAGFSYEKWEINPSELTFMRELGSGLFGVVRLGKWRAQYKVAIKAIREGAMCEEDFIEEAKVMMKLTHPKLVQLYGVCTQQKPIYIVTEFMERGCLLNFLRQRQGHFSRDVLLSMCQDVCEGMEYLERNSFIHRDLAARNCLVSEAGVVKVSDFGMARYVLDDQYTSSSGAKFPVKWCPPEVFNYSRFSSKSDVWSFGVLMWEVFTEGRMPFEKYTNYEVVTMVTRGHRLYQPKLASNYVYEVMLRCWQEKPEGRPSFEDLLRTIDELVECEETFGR

[11] = target: Serine/threonine-protein kinase SIK1 (Homo sapiens) (UniProt P57059); conditions: at 10 µM
[12] = system: Tyrosine-protein kinase ABL1 (Homo sapiens), P00519 [Q252H]; assay: Selectivity interaction (KinomeScan (DiscoverX)) EUB0000618a ABL1; conditions: at 10 µM

Chain of Calcium/calmodulin-dependent protein kinase kinase 2 (Homo sapiens) (Q96RR4 2-588 limits assumed): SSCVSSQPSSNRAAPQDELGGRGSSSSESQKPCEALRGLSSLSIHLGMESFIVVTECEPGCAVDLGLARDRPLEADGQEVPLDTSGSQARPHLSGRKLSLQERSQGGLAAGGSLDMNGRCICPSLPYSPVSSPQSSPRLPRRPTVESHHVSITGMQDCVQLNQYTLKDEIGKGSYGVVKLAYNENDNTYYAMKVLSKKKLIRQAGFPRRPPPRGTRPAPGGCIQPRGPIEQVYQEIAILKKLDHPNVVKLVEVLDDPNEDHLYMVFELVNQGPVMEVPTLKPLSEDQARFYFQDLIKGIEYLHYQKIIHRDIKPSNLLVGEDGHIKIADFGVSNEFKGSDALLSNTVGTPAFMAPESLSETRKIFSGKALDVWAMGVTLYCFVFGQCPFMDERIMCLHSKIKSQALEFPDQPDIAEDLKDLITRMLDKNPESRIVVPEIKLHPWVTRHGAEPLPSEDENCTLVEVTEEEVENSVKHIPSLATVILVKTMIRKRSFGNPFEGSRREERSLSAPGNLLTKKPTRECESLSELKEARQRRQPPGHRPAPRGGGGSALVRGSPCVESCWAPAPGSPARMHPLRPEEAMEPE
Chain of Protein kinase C theta type (Q04759 whole entry, looked up): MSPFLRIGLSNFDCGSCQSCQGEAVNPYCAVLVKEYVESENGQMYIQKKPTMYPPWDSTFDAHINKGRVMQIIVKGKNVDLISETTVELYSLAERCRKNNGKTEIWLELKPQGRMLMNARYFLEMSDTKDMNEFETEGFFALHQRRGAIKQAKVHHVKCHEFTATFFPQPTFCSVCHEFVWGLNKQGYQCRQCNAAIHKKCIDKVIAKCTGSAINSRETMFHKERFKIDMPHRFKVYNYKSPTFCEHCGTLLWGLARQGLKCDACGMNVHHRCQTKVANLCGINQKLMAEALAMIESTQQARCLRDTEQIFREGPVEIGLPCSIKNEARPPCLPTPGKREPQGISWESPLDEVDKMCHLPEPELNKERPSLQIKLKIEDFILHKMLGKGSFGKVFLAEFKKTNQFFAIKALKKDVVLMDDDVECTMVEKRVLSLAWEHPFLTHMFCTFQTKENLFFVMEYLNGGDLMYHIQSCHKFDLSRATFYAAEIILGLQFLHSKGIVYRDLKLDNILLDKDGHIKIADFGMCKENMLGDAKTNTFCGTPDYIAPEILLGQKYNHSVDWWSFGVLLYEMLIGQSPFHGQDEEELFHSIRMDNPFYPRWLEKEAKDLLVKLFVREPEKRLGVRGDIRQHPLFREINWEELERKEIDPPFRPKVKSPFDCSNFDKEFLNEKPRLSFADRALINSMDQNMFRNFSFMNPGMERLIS
Chain of Serine/threonine-protein kinase SIK1 (Homo sapiens) (P57059 whole entry): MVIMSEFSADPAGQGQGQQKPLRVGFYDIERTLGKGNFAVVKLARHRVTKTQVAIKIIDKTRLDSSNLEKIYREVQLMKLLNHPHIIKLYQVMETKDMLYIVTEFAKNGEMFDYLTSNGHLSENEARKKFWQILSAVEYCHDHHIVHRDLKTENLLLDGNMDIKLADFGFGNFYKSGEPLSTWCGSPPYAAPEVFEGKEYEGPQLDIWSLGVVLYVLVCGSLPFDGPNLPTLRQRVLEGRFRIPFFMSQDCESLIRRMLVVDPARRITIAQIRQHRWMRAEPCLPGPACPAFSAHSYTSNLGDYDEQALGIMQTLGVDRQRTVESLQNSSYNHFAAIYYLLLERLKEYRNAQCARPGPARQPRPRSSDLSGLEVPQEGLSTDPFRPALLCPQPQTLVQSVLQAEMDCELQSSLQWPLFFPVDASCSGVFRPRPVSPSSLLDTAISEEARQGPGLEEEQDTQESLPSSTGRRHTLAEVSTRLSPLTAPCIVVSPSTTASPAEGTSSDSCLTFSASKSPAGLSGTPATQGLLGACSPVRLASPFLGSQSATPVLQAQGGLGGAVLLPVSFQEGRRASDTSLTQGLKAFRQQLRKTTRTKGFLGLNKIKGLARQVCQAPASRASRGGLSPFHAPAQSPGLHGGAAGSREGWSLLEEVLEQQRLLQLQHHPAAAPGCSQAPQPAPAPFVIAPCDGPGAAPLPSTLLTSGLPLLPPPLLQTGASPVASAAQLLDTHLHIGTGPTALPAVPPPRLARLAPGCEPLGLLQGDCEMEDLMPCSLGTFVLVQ
Chain of Mitogen-activated protein kinase kinase kinase kinase 4 (O95819 2-1239 limits assumed): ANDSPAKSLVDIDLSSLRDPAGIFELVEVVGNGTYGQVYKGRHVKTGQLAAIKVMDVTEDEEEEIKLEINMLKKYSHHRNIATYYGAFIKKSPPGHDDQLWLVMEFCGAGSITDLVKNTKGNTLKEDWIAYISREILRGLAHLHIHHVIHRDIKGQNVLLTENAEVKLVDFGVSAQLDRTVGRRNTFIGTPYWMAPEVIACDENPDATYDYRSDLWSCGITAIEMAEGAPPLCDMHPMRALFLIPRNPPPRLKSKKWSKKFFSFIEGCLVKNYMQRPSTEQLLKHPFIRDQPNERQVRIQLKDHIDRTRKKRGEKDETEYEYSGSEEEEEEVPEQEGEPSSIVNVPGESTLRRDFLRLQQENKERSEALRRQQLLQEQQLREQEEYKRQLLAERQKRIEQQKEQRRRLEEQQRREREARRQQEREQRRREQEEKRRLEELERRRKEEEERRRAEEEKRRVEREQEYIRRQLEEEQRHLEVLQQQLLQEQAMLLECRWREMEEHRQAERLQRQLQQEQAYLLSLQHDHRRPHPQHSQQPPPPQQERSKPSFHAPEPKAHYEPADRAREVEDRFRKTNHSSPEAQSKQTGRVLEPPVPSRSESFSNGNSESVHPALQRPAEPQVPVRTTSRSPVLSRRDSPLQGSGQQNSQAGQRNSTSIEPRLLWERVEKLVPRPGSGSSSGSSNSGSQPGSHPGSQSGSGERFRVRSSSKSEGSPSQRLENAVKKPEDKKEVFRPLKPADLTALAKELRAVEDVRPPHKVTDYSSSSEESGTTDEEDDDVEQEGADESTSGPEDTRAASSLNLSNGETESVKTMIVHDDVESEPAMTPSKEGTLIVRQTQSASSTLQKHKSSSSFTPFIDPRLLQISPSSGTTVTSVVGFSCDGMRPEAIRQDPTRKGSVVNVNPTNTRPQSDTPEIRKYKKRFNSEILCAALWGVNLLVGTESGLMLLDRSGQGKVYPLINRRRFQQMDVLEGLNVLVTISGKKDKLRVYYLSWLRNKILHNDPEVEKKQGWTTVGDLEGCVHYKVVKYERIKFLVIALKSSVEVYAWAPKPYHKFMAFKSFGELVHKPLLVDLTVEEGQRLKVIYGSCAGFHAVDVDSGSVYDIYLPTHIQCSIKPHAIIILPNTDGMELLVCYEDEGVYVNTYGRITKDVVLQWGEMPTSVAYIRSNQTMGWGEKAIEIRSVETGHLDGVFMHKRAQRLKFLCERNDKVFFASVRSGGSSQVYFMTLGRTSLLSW
Chain of Serine/threonine-protein kinase MRCK alpha (Homo sapiens) (Q5VT25 whole entry): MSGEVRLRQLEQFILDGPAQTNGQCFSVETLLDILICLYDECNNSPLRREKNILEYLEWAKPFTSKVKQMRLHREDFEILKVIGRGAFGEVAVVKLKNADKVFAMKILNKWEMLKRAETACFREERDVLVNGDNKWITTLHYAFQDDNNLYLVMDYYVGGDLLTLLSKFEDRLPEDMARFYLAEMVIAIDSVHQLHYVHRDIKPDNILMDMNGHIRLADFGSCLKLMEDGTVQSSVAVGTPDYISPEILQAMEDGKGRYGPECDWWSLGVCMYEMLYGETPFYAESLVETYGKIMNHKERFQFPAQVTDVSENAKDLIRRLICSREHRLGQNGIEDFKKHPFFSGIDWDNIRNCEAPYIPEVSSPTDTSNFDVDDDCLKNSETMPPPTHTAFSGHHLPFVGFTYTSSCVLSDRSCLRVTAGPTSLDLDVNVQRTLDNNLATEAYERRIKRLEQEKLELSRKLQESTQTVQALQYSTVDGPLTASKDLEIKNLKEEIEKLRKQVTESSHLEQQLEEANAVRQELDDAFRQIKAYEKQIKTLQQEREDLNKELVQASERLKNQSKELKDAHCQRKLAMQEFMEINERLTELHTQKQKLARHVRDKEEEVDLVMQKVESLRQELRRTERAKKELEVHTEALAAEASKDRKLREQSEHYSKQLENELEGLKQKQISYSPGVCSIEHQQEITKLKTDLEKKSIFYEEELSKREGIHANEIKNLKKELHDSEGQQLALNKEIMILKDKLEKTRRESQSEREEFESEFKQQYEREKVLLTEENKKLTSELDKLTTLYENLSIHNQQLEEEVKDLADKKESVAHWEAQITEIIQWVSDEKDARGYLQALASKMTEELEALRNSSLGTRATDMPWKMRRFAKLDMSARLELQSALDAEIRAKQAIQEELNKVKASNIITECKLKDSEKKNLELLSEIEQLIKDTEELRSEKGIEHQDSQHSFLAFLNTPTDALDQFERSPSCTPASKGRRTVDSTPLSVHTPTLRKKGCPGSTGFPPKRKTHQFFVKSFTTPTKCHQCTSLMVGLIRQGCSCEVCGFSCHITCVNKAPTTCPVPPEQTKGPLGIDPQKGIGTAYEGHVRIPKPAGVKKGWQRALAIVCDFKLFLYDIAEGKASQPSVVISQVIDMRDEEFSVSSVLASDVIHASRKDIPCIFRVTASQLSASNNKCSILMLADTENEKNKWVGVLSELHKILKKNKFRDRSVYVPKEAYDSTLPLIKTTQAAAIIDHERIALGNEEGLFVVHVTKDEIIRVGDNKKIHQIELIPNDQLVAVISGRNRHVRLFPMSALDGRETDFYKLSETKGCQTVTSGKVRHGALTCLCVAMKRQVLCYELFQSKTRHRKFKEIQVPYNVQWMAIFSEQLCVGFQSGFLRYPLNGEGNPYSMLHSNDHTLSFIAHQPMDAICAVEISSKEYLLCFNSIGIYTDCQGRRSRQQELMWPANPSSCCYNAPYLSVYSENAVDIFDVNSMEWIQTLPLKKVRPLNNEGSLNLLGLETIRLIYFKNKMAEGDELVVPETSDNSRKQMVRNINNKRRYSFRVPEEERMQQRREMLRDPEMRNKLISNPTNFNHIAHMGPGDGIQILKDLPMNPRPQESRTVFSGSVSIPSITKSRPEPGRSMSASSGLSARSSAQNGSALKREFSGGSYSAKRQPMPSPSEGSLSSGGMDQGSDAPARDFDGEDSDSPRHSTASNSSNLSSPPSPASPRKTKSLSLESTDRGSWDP

% of control [1]: 3.12%
SMILES: Cn1cc(-n2cnc3c(NCc4nc5cc(Cl)c(Cl)cc5[nH]4)nc(N4CCOCC4)nc32)cn1

SMILES: O=C(NOC[C@H](O)CO)c1ccc(F)c(F)c1Nc1ccc(I)cc1F
% of control [2]: 100%

SMILES: CNC(=O)Nc1ccc(-c2nc(N3CC4CCC(C3)O4)c3cnn(C4CCC5(CC4)OCCO5)c3n2)cc1
% of control [3]: 100%

% of control [4]: 100% | % of control [5]: 100%
SMILES: CCN(CC)CCCCNc1ncc2cc(-c3cc(OC)cc(OC)c3)c(NC(=O)NC(C)(C)C)nc2n1

SMILES: COc1cc(Nc2nc(C)cc(-c3cnn4nc(OC)ccc34)n2)cc(C(F)(F)F)c1
% of control [6]: 94%

SMILES: Nc1cnc(N2CCc3cc(S(=O)(=O)Nc4c(F)cc(Cl)cc4F)cc(N4CCCC4=O)c32)nc1 [TP-020n]
% of control [7]: 100% | % of inhibition [8]: -1.96% | % of control [9]: 81%

SMILES: COc1cc(N(C)c2ccnc3ccc(C(F)(F)F)cc23)cc(OC)c1OC
% binding [10]: 98%

SMILES: Cc1cc([C@@H](C)Nc2ccccc2C(=O)O)c2nc(N3CCOCC3)cc(=O)n2c1 [AZD-6482]
% of control [11]: 100%

SMILES: O[C@H]1CC[C@H](Nc2ncc3nc(Nc4c(F)cc(F)cc4F)n([C@H]4CCOC4)c3n2)CC1
% of control [12]: 36%
